Assay results published in patent US20180303817A1, “THERAPEUTIC AGENT FOR BREAST CANCER” (Eisai R&D Management Co., Ltd., priority 2015, published 2018).

Legend:
[1] = Changes in body weight over time in MFM223 tumor-bearing nude mice; format: in vivo, nude mice (BALB/cAJcl-nu/nu, female)
Procedure: (§1) Four nude mice (BALB/cAJcl-nu/nu, female, CLEA Japan, Inc.) per group were used to evaluate an anti-tumor effect when compound A was administered.
(§2) Compound A as obtained in Production Example 1 was dissolved at a concentration of 0.625 mg/mL, or 2.5 mg/mL in purified water.
(§3) Then, the solution was orally administered at a dose of 20 mL/kg, i.e., 12.5 mg/kg or 50 mg/kg, once a day for 12 days to the mice of each group. Purified water was administered at 20 mL/kg to the control group.
(§4) On day 3, 7, and 12 after initiation of the administration, the tumor volume of each mouse was measured. In addition, Table 2 and FIG. 2 show changes in body weight over time.

[2] = test system: human-derived breast cancer cell line MFM223; experiment: Anti-tumor effect of compound A in nude mice with subcutaneously transplanted human breast cancer cell line MFM223 (tumor volume); format: in vivo, nude mice (BALB/cAJcl-nu/nu, female)
Procedure: as §1
A human-derived breast cancer cell line MFM223 (ECACC) was subjected to preparatory conditioning. The MFM223 cells were suspended at a concentration of 2×10^8 cells/mL in HBSS (Wako Pure Chemical Industries, Ltd.). To the resulting suspension was added an equal volume of Matrigel™ matrix (Becton, Dickinson and Company, Japan), and the mixture was mixed sufficiently. Then, 0.1 mL of the mixture was subcutaneously transplanted into the right flank of each nude mouse (CAnN.Cg-Foxnlnu/Crlalj, female, Charles River Laboratories International, Inc.). During rearing, β-estradiol (Wako Pure Chemical Industries, Ltd.) prepared at a final concentration of 2.5 μg/mL in drinking water was orally administered. 46 Days after the transplantation, a tumor formed was resected and cut into small pieces. HBSS containing Type I collagenase (SIGMA) at a final concentration of 380 units/mL and Deoxyribonuclease I (SIGMA) at a final concentration of 160 K units/mL was added thereto, and the mixture was stirred at 37° C. After the mixture was made to pass through a 100-μm cell strainer (Falcon®) and centrifuged to collect the cells, those cells were cultured in 10% bovine serum-containing EMEM culture medium.
The cells as so obtained were suspended at a concentration of 1.4×10^8 cells/mL in 10% bovine serum-containing EMEM culture medium (Wako Pure Chemical Industries, Ltd.). To the resulting suspension was added an equal volume of Matrigel™ matrix (Becton, Dickinson and Company, Japan), and the resulting mixture was mixed sufficiently. Next, 0.1 mL of the mixture was subcutaneously transplanted into the right flank of each mouse, and then, the anti-tumor effect was evaluated.
20 Days after the transplantation, an electronic digital caliper (Digimatic™ Caliper; Mitutoyo Corporation) was used to measure the long and short diameters of a tumor of interest. The mice were grouped such that each group had substantially the same average of the tumor volumes. Note that each tumor volume was calculated by using the following equation:
Tumor Volume (mm^3)=Long Diameter (mm)×Short Diameter (mm)×Short Diameter (mm)/2.
as §2, §3, §4

[3] = 12.5 mg/kg orally once a day, Day 3
[4] = 12.5 mg/kg orally once a day, Day 7
[5] = 12.5 mg/kg orally once a day, Day 12
[6] = 50 mg/kg orally once a day, Day 3
[7] = 50 mg/kg orally once a day, Day 7
[8] = 50 mg/kg orally once a day, Day 12

Compound: CNC(=O)n1ccc2cc(Oc3ccnc(NC(=O)c4ccc(C5CCN(CCO)CC5)cc4)c3)c(OCCOC)cc21 [Compound A, 5-((2-(4-(1-(2-hydroxyethyl)piperidin-4-yl)benzamide)pyridin-4-yl)oxy)-6-(2-methoxyethoxy)-N-methyl-1H-indole-1-carboxamide 1.5 succinate]
- Changes in body weight over time ([1]; 12.5 mg/kg orally once a day, Day 0): 21.1 g
- Changes in body weight over time [1, 3]: 21.4 g
- Changes in body weight over time [1, 4]: 22.6 g
- Changes in body weight over time [1, 5]: 23.2 g
- Changes in body weight over time ([1]; 50 mg/kg orally once a day, Day 0): 21.5 g
- Changes in body weight over time [1, 6]: 22.8 g
- Changes in body weight over time [1, 7]: 23.8 g
- Changes in body weight over time [1, 8]: 24.0 g
- Changes in tumor volume over time ([2]; 12.5 mg/kg orally once a day, Day 0 (at grouping, before treatment effect)): 151.6 mm^3
- Changes in tumor volume over time [2, 3]: 139.0 mm^3
- Changes in tumor volume over time [2, 4]: 143.8 mm^3
- Changes in tumor volume over time [2, 5]: 148.2 mm^3
- Changes in tumor volume over time ([2]; 50 mg/kg orally once a day, Day 0 (at grouping, before treatment effect)): 151.6 mm^3
- Changes in tumor volume over time [2, 6]: 112.8 mm^3
- Changes in tumor volume over time [2, 7]: 99.3 mm^3
- Changes in tumor volume over time [2, 8]: 87.2 mm^3
